Source: PubChem BioAssay AID180 (DTP/NCI, 2004)
Values joined by “and” are separate entries in the source; they are usually repeats but may differ in a detail not shown here. Equal values may be shown once.

System: BDF1 mice, Adenocarcinoma 755 s.c., tumor weight T/C
Assay: NCI In Vivo Anticancer Drug Screen. Data for tumor model Adenocarcinoma 755 (subcutaneous) in B6D2F1 (BDF1) mice
Conditions: endpoint: mean tumor weight, higher = larger tumour
Outline: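 Compound activity was tested in mice carrying transplanted tumors. Survival or tumor size was measured, and each value is the treated-group measurement divided by that of the vehicle-treated control group (T/C).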

[1] = dose: 4.0 mg/kg/injection, schedule: Q01DX011 (ip), vehicle: saline
[2] = dose: 8.0 mg/kg/injection, schedule: Q01DX011 (ip), vehicle: saline
[3] = dose: 125.0 mg/kg/injection, schedule: Q01DX011 (ip), vehicle: methylcellulose (MC)
[4] = dose: 250.0 mg/kg/injection, schedule: Q01DX011 (ip), vehicle: methylcellulose (MC)
[5] = dose: 25.0 mg/kg/injection, schedule: Q01DX011 (ip), vehicle: methylcellulose (MC)
[6] = dose: 50.0 mg/kg/injection, schedule: Q01DX011 (ip), vehicle: saline
[7] = dose: 100.0 mg/kg/injection, schedule: Q01DX011 (ip), vehicle: saline
[8] = dose: 200.0 mg/kg/injection, schedule: Q01DX011 (ip), vehicle: saline
[9] = dose: 25.0 mg/kg/injection, schedule: Q01DX011 (ip), vehicle: carboxymethylcellulose (CMC)
[10] = dose: 50.0 mg/kg/injection, schedule: Q01DX011 (ip), vehicle: carboxymethylcellulose (CMC)
[11] = dose: 30.0 mg/kg/injection, schedule: Q01DX011 (ip), vehicle: carboxymethylcellulose (CMC)
[12] = dose: 60.0 mg/kg/injection, schedule: Q01DX011 (ip), vehicle: carboxymethylcellulose (CMC)
[13] = dose: 120.0 mg/kg/injection, schedule: Q01DX011 (ip), vehicle: carboxymethylcellulose (CMC)
[14] = dose: 240.0 mg/kg/injection, schedule: Q01DX011 (ip), vehicle: carboxymethylcellulose (CMC)

## N#CSc1ncnc2nc[nH]c12
dose: 0.4 mg/kg/injection, schedule: Q01DX011 (ip), vehicle: water
  T/C: 67 % of control
dose: 1.0 mg/kg/injection, schedule: Q01DX011 (ip), vehicle: alkali diluted with saline
  T/C: 20 % of control and 33 % of control
dose: 1.0 mg/kg/injection, schedule: Q01DX011 (ip), vehicle: saline
  T/C: 10 % of control
dose: 1.3 mg/kg/injection, schedule: Q01DX011 (ip), vehicle: water
  T/C: 8 % of control
dose: 1.75 mg/kg/injection, schedule: Q01DX011 (ip), vehicle: water
  T/C: 4 % of control
dose: 2.0 mg/kg/injection, schedule: Q01DX011 (ip), vehicle: alkali diluted with saline
  T/C: 1 % of control and 11 % of control
dose: 2.0 mg/kg/injection, schedule: Q01DX011 (ip), vehicle: saline
  T/C: 1 % of control
dose: 4.0 mg/kg/injection, schedule: Q01DX011 (ip), vehicle: alkali diluted with saline
  T/C: 2 % of control
[1]
  T/C: 1 % of control
dose: 7.0 mg/kg/injection, schedule: Q01DX011 (ip), vehicle: water
  T/C: 1 % of control
[2]
  T/C: 1 % of control

## CCCCn1cnc2c(SCc3ccccc3Cl)nc(N)nc21
dose: 62.5 mg/kg/injection, schedule: Q01DX011 (ip), vehicle: methylcellulose (MC)
  T/C: 24 % of control
[3]
  T/C: 13 % of control
[4]
  T/C: 5 % of control

## CNc1nc(SCc2ccccc2)ncc1C
dose: 31.0 mg/kg/injection, schedule: Q01DX011 (ip), vehicle: methylcellulose (MC)
  T/C: 60 % of control
[3]
  T/C: 82 % of control
[4]
  T/C: 52 % of control

## Cc1ncc(CO)c(C)c1O
dose: 12.5 mg/kg/injection, schedule: Q01DX011 (ip), vehicle: saline
  T/C: 48 % of control
dose: 22.78 mg/kg/injection, schedule: Q01DX011 (ip), vehicle: carboxymethylcellulose (CMC)
  T/C: 81 % of control
[5]
  T/C: 98 % of control
dose: 25.0 mg/kg/injection, schedule: Q01DX011 (ip), vehicle: saline
  T/C: 45 % of control
dose: 45.57 mg/kg/injection, schedule: Q01DX011 (ip), vehicle: carboxymethylcellulose (CMC)
  T/C: 70 % of control
dose: 50.0 mg/kg/injection, schedule: Q01DX011 (ip), vehicle: methylcellulose (MC)
  T/C: 75 % of control
[6]
  T/C: 54 % of control
dose: 59.07 mg/kg/injection, schedule: Q01DX011 (ip), vehicle: carboxymethylcellulose (CMC)
  T/C: 107 % of control
dose: 75.0 mg/kg/injection, schedule: Q01DX011 (ip), vehicle: saline
  T/C: 50 % of control
dose: 91.15 mg/kg/injection, schedule: Q01DX011 (ip), vehicle: carboxymethylcellulose (CMC)
  T/C: 76 % of control
dose: 100.0 mg/kg/injection, schedule: Q01DX011 (ip), vehicle: methylcellulose (MC)
  T/C: 71 % of control
[7]
  T/C: 22 % of control
dose: 118.15 mg/kg/injection, schedule: Q01DX011 (ip), vehicle: carboxymethylcellulose (CMC)
  T/C: 108 % of control
[3]
  T/C: 48 % of control
dose: 150.0 mg/kg/injection, schedule: Q01DX011 (ip), vehicle: saline
  T/C: 30 % of control
dose: 182.3 mg/kg/injection, schedule: Q01DX011 (ip), vehicle: carboxymethylcellulose (CMC)
  T/C: 72 % of control
dose: 200.0 mg/kg/injection, schedule: Q01DX011 (ip), vehicle: methylcellulose (MC)
  T/C: 70 % of control
dose: 236.3 mg/kg/injection, schedule: Q01DX011 (ip), vehicle: carboxymethylcellulose (CMC)
  T/C: 55 % of control

## COC1C(OC(N)=O)C(O)C(Oc2ccc3c(O)c(NC(=O)c4ccc(O)c(CC=C(C)C)c4)c(=O)oc3c2C)OC1(C)C (configuration not stated)
[6]
  T/C: 78 % of control
[7]
  T/C: 42 % of control
[8]
  T/C: 60 % of control

## OC(CN1CCCCC1)c1ccc(/C=C/c2ccc(Cl)cc2)cc1 (configuration not stated)
dose: 118.0 micrograms/kg/injection, schedule: Q01DX011 (ip), vehicle: methylcellulose (MC)
  T/C: 40 % of control
dose: 237.0 micrograms/kg/injection, schedule: Q01DX011 (ip), vehicle: methylcellulose (MC)
  T/C: 55 % of control
dose: 475.0 micrograms/kg/injection, schedule: Q01DX011 (ip), vehicle: methylcellulose (MC)
  T/C: 49 % of control

## OC1CC([CH2][Hg][Cl])OC([CH2][Hg][Cl])C1 (configuration not stated)
dose: 6.0 mg/kg/injection, schedule: Q01DX011 (ip), vehicle: carboxymethylcellulose (CMC)
  T/C: 95 % of control
dose: 12.0 mg/kg/injection, schedule: Q01DX011 (ip), vehicle: carboxymethylcellulose (CMC)
  T/C: 109 % of control
[9]
  T/C: 28 % of control and 36 % of control
[10]
  T/C: 92 % of control

## NS(=O)(=O)c1nc2nc[nH]c(=O)c2[nH]1
[11]
  T/C: 113 % of control
[12]
  T/C: 163 % of control
[13]
  T/C: 104 % of control
[14]
  T/C: 113 % of control

## C/C(=N\NC(=O)c1ccncc1)c1ccccc1Cl
dose: 30.0 mg/kg/injection, schedule: Q01DX011 (ip), vehicle: methylcellulose (MC)
  T/C: 56 % of control
dose: 60.0 mg/kg/injection, schedule: Q01DX011 (ip), vehicle: methylcellulose (MC)
  T/C: 61 % of control

## Nc1nc(N)c(N)c(N)n1
[6]
  T/C: 82 % of control
[8]
  T/C: 92 % of control
dose: 400.0 mg/kg/injection, schedule: Q01DX011 (ip), vehicle: saline
  T/C: 90 % of control

## Cn1c(=O)c2ncn(CC(=O)O)c2n(C)c1=O
[11]
  T/C: 45 % of control
[12]
  T/C: 156 % of control
[13]
  T/C: 99 % of control
[14]
  T/C: 120 % of control

## C[C@@H]1CN(C(=O)CCOS(C)(=O)=O)[C@@H](C)CN1C(=O)CCOS(C)(=O)=O
[1]
  T/C: 95 % of control
[2]
  T/C: 65 % of control
dose: 9.4 mg/kg/injection, schedule: Q01DX011 (ip), vehicle: carboxymethylcellulose (CMC)
  T/C: 104 % of control
dose: 15.0 mg/kg/injection, schedule: Q01DX011 (ip), vehicle: carboxymethylcellulose (CMC)
  T/C: 61 % of control
dose: 16.0 mg/kg/injection, schedule: Q01DX011 (ip), vehicle: saline
  T/C: 60 % of control
[11]
  T/C: 32 % of control
dose: 33.0 mg/kg/injection, schedule: Q01DX011 (ip), vehicle: carboxymethylcellulose (CMC)
  T/C: 21 % of control
dose: 33.0 mg/kg/injection, schedule: Q01DX011 (ip), vehicle: saline
  T/C: 52 % of control
dose: 37.5 mg/kg/injection, schedule: Q01DX011 (ip), vehicle: carboxymethylcellulose (CMC)
  T/C: 59 % of control and 62 % of control
[10]
  T/C: 27 % of control
[6]
  T/C: 15 % of control
[12]
  T/C: 5 % of control
dose: 75.0 mg/kg/injection, schedule: Q01DX011 (ip), vehicle: carboxymethylcellulose (CMC)
  T/C: 9 % of control and 15 % of control and 23 % of control
dose: 112.5 mg/kg/injection, schedule: Q01DX011 (ip), vehicle: carboxymethylcellulose (CMC)
  T/C: 10 % of control
[13]
  T/C: 4 % of control

## C1OC1C1CO1 (configuration not stated)
dose: 3.05 mg/kg/injection, schedule: Q01DX011 (ip), vehicle: carboxymethylcellulose (CMC)
  T/C: 83 % of control
dose: 3.5 mg/kg/injection, schedule: Q01DX011 (ip), vehicle: carboxymethylcellulose (CMC)
  T/C: 77 % of control
dose: 7.0 mg/kg/injection, schedule: Q01DX011 (ip), vehicle: carboxymethylcellulose (CMC)
  T/C: 72 % of control
dose: 8.13 mg/kg/injection, schedule: Q01DX011 (ip), vehicle: carboxymethylcellulose (CMC)
  T/C: 62 % of control and 68 % of control
dose: 14.0 mg/kg/injection, schedule: Q01DX011 (ip), vehicle: carboxymethylcellulose (CMC)
  T/C: 110 % of control
dose: 24.4 mg/kg/injection, schedule: Q01DX011 (ip), vehicle: carboxymethylcellulose (CMC)
  T/C: 24 % of control and 33 % of control and 45 % of control
dose: 28.0 mg/kg/injection, schedule: Q01DX011 (ip), vehicle: carboxymethylcellulose (CMC)
  T/C: 61 % of control

## N#[N+]c1nc[nH]c1C(N)=O
dose: 1.25 mg/kg/injection, schedule: Q01DX011 (ip), vehicle: methylcellulose (MC)
  T/C: 61 % of control

## CCC(C)Cn1cnc2c(SCC(=O)O)nc(N)nc21 (configuration not stated)
[5]
  T/C: 78 % of control
dose: 80.0 mg/kg/injection, schedule: Q01DX011 (ip), vehicle: methylcellulose (MC)
  T/C: 43 % of control
[4]
  T/C: 45 % of control

## OB(O)O
dose: 500.0 mg/kg/injection, schedule: Q#A X022 (oral), vehicle: water
  T/C: 39 % of control and 45 % of control
dose: 750.0 mg/kg/injection, schedule: Q#A X022 (oral), vehicle: water
  T/C: 16 % of control
dose: 1000.0 mg/kg/injection, schedule: Q#A X022 (oral), vehicle: water
  T/C: 9 % of control

## Cn1c(=O)c2[nH]c(/N=N/N3CCN(CCO)CC3)nc2n(C)c1=O
dose: 75.0 mg/kg/injection, schedule: Q01DX011 (ip), vehicle: other
  T/C: 119 % of control
dose: 225.0 mg/kg/injection, schedule: Q01DX011 (ip), vehicle: other
  T/C: 92 % of control

## S=c1[nH]c(=S)c2[nH]cnc2[nH]1
[9]
  T/C: 84 % of control
[10]
  T/C: 58 % of control
dose: 100.0 mg/kg/injection, schedule: Q01DX011 (ip), vehicle: carboxymethylcellulose (CMC)
  T/C: 31 % of control
